The results in this text go back to patent US20250042926A1, “THERAPEUTIC COMPOUNDS FOR HIV” (priority 2023, published 2025).

The data set is classed as physicochemical. As to conditions: kinetic solubility from DMSO stock, 1.0% DMSO, 24-hour incubation at ambient temperature, filtrate quantified by CLND. The procedure: 2. Kinetic Solubility Analysis (CLND: Total Chemiluminescent Nitrogen Determination)
The final DMSO Concentration is 1.0% and maximum theoretical compound concentration is […] (assuming stock concentration of 10 mM). The filter plate is sealed. Following 24-hour incubation at ambient temperature (21.7-23.8° C.), the samples are vacuum filtered, and the filtrates are collected in a 96 well polypropylene plate for analysis. The collection plate is sealed for analysis.
Filtrates are injected into the nitrogen detector for quantification on Analiza's Automated Discovery Workstation. The equimolar nitrogen response of the detector is calibrated using standards which span the dynamic range of the instrument from 0.08 to 4500 μg/ml nitrogen. The filtrates are quantified with respect to this calibration curve. The calculated solubility values are corrected for background nitrogen present in the DMSO, and the media used to prepare the samples. The 1×PBS buffer (pH 7.4) is prepared by adding 50 mL of phosphate buffered saline solution 10×, PBS (Fisher Bioreagent part number BP399-500) to approximately 450 mL HPLC grade H2O. The volume of the solution is then adjusted to 500 mL for a total dilution factor of 1:10 and a final PBS concentration of 1X.

Turning to `Cc1cc(CC(=O)N[C@@H](CC(=O)O)C(=O)O)c(C(C)(C)CC(=O)N(c2nn(C)c3c(-n4c([C@H](Cc5cc(F)cc(F)c5)NC(=O)Cn5nc(C(F)F)c6c5C(F)(F)[C@@H]5C[C@H]65)nc5cc(-c6cccc(C(F)(F)F)n6)ccc5c4=O)ccc(Cl)c23)S(C)(=O)=O)c(OP(=O)(O)O)c1` [Compound 5, (2-(2-(4-(N-(4-Chloro-7-(2-((S)-1-(2-((3bS,4aR)-3-(difluoromethyl)-5,5-difluoro-3b,4,4a,5-tetrahydro-1H-cyclopropa[3,4]cyclopenta[1,2-c]pyrazol-1-yl)acetamido)-2-(3,5-difluorophenyl)ethyl)-4-oxo-7-(6-(trifluoromethyl)pyridin-2-yl)quinazolin-3(411)-yl)-1-methyl-1H-indazol-3-yl)methylsulfonamido)-2-methyl-4-oxobutan-2-yl)-5-methyl-3-(phosphonooxy)phenyl)acetyl)-L-aspartic acid], under “pH 2 (medium 0.1N HCl)”, the “pH 2 Solubility (μM)” value is 1.1 μM. The “pH 7 Solubility (μM)” value (pH 7 (medium 1×PBS buffer pH 7.4)) is 76 μM.
